Experimental data as given in patent publication US20240189375A1, “COMPOSITION COMPRISING A […] AN EXTRACT THEREOF FOR USE IN THE TREATMENT OF A VIRAL DISEASE” (priority 2021, published 2024).

Molecular target: T1, rACE2 (Homo sapiens, UniProt Q9BYF1)
T1 construct: purchased R&D systems, Zug
Assay: ACE2 enzymatic activity assay with fluorogenic substrate
Format: biochemical
Settings: range of 0.045 nM to 11100 nM; positive control; read-out: half maximal inhibitory concentration (IC50) of ACE2 catalytic activity
Procedure: The ACE2 enzymatic activity assay was designed to measure the exopeptidase activity of ACE2 and to screen for inhibition. Activity was measured using a commercially available synthetic fluorogenic substrate for ACE2 and rACE2 (R&D systems, Zug). rACE2 was used to generate a standard curve using the assay buffer, 75 mM TRIS, 1M NaCl, ph7.5. Natural extract screening was performed using 100 ng/ml rACE2 and 15 μM ACE2 fluorogenic substrate plus the Chlorella extracts in various concentrations. Subsequently the mixture was incubated for 1 h at 37° C. and measured using Flexstation 3 (Molecular Devices, San Jose, CA, USA) at excitation 320 nm and emission 405 nm.

T1 sequence (Q9BYF1 18-805): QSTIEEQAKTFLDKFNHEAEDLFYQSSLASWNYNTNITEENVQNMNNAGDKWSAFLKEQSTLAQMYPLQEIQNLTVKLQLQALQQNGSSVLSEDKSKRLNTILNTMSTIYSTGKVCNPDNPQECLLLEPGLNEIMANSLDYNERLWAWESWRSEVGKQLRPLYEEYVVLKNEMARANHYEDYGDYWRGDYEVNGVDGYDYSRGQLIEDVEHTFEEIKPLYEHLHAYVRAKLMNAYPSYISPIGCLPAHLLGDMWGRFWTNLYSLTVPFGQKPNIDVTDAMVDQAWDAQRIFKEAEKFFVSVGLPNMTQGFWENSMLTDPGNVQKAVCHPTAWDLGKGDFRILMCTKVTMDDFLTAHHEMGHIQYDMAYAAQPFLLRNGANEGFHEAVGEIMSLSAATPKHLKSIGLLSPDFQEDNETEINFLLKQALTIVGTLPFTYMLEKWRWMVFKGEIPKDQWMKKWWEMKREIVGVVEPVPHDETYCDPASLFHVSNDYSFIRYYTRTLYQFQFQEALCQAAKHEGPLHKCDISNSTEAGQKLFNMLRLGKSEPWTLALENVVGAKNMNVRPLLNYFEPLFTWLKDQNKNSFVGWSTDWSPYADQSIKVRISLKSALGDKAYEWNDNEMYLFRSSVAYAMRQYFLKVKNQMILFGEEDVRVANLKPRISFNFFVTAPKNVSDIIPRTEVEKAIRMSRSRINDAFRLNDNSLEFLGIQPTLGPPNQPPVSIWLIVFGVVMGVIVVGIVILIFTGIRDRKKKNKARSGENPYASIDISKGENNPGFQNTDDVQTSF

## CC(C)C[C@H](N[C@@H](Cc1cncn1Cc1cc(Cl)cc(Cl)c1)C(=O)O)C(=O)O [MLN-4760]
  IC50: 0.19 nM
